From PMC10714399, “Open Source Antibiotics: Simple Diarylimidazoles Are Potent against Methicillin-Resistant Staphylococcus aureus” (ACS Infectious Diseases, 2023)
Values after ≈ are worked out from the molar mass of the structure shown. Like-named read-outs stand apart in the source and are kept apart here.

Assays:
VSE = experiment: In vitro antibacterial activity, MIC, VSE; format: cell-based
[1] = Rat hepatocyte intrinsic clearance; format: in vitro ADME; conditions: rat hepatocytes, NEU; read-out: Rat Hep CLint (NEU)
[2] = HEK293 toxicity, 96-well dose-response (UCL; MTT or resazurin, with or without recovery); format: cell-based, human; conditions: human, HEK293 cells; read-out: HEK293 CC50
Summary of the method: (§1)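 HEK293 cells seeded 48 h beforehand (700 cells for recovery runs, 5000 for non-recovery), then exposed 24 h to 2-fold dilutions from 32 μg/mL down to […] (1% DMSO top). Viability read by MTT or resazurin, either immediately or after 72 h recovery; Dmax = 100 − viability% at 32 μg/mL.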

HEK293 cells = experiment: as above; format: cell-based, human; conditions: 32 μg/mL
Summary of the method: as §1

MIC (VSE; read-out: VSE MIC (UCL)) [µg/mL] | hepatocyte CLint [1] [µL/min/1e6 cells] | MIC (VSE; read-out: VSE MIC) [µg/mL] | Structure (SMILES) | CC50 at 24 h [2] [µg/mL] | spread of Dmax values comparing recovery and non-recovery conditions (HEK293 cells)
4 (≈ 12.6 µM) | > 300 | – | c1ccc(-c2nc3n(c2-c2ccc4sccc4c2)CCC3)nc1 [OSA_000822] | 2.9 (≈ 9.14 µM) | –
– | 13.6 | – | c1ccc(-c2nc3n(c2-c2ccc4occc4c2)CCC3)nc1 [compound 821] | 1.7 (≈ 5.64 µM) | small difference
– | – | 4 (≈ 12.6 µM) | c1ccc(-c2nc3n(c2-c2ccc4sccc4c2)CCC3)nc1 [compound 822] | – | small difference
